Test results published in US20100183710A1, “OMEPRAZOLE FORM B” (priority 2005, published 2010).

Key:
[1] = Long-term stability study of omeprazole Form B (polymorphic form by XRPD); type: physicochemical
Source text: Omeprazole Form B prepared using a method similar to the one described in Example 1 was subjected to long-term stability studies. Each sample was packed in a clear polythene bag, filled with nitrogen, tied with a tag and kept in a black polythene bag along with silica pouch filled with nitrogen and then sealed. Finally, the above triple laminated bag along with silica pouch was sealed and stored in a HDPE drum. The color, moisture content, purity and the polymorphic form of the product was checked at intervals during storage. The results for compliance of polymorphic form are tabulated below, where “ND” means not detected by XRPD. 950 mg of Form B and 50 mg of Form A of Omeprazole were weighed and combined to form a weight ratio of Form B to Form A of 95:5. The mixture was ground three times in a mortar to get a uniform powder. [table] FIG. 6 is a scan for pure omeprazole Form B. FIG. 5 is the XRPD scan for the standard, containing 5% by weight of omeprazole Form A, and the scan of FIG. 6 has been superimposed for comparison.

[2] = as described in U.S. Pat. No. 6,150,380; cited from earlier work

Row | SMILES | Color, moisture content and purity of the product during storage ([1]; long-term stability storage) | Conversion into crystalline Form A during storage ([1]; storage in a container for 6 months at 40° C. and 60% relative humidity) | Conversion into Form A [2] | Hygroscopicity relative to omeprazole Form B [2] | Thermodynamic stability relative to omeprazole Form B [2]
1 | COc1ccc2[nH]c([S+]([O-])Cc3ncc(C)c(OC)c3C)nc2c1 (centres unmarked) [Omeprazole Form B, 5-Methoxy-2-[[(4-methoxy-3,5-dimethyl-2-pyridinyl)methyl]sulfinyl]-1H-benzimidazole] | remained substantially the same | does not convert into crystalline Form A | can completely or partially convert into Form A |  | 
2 | COc1ccc2[nH]c([S+]([O-])Cc3ncc(C)c(OC)c3C)nc2c1 (centres unmarked) [omeprazole Form A, 5-Methoxy-2-[[(4-methoxy-3,5-dimethyl-2-pyridinyl)methyl]sulfinyl]-1H-benzimidazole] |  |  |  | less hygroscopic | thermodynamically more stable
